# According to patent publication US20190046490A1, “METHODS OF TREATING LACTOSE INTOLERANCE” (Nogra Pharma Limited, priority 2016, published 2019):
# Legend:
# Type in all cases: cell-based
# [1] = system: DR2 response element of the human LCT gene promoter; test: Luciferase reporter gene assay with LCT promoter DR2 fragment in Caco-2 cells
# Protocol: A 321 bp genomic fragment (corresponding to the first 321 bp upstream to the transcription start site of the human lactase gene) was cloned in the pGL4-Luc reporter vector using XhoI and Hind III restriction sites introduced in “Hs-Prom-0.3 Kb sens” and “Hs-Prom-0.3 Kb anti-sens” oligonucleotides respectively. This construct and the empty vector control were transiently transfected in Caco-2 cells using Nucleofector™ Technology. Six hours post-transfection, cells were treated with PPARγ modulator for 12 hours. Luciferase activity was measured using the luciferase assay kit (Promega) in a Wallac Victor2 ™ 1420 multilabel counter (Perkin Elmer).
# [2] = system: lactase; test: Lactase expression and activity in short term cultures of human duodenal biopsies; conditions: exposure for 6 hours
# [3] = biological target: T1, PPARγ bound to DR2 PPRE of the LCT gene promoter (Homo sapiens, UniProt P37231); test: Chromatin immunoprecipitation of PPARγ on the LCT gene promoter in Caco-2 cells; conditions: 1 mM, 24 hours
# T1 construct: Chromatin immunoprecipitation (ChIP) experiments in Caco-2 cells (5×10^6 cells) stimulated for 24 hours with 1 mM GED; endogenous in cells; host or cells: Caco-2 (colonic adenocarcinoma) cells
# T1 sequence (P37231 1-505): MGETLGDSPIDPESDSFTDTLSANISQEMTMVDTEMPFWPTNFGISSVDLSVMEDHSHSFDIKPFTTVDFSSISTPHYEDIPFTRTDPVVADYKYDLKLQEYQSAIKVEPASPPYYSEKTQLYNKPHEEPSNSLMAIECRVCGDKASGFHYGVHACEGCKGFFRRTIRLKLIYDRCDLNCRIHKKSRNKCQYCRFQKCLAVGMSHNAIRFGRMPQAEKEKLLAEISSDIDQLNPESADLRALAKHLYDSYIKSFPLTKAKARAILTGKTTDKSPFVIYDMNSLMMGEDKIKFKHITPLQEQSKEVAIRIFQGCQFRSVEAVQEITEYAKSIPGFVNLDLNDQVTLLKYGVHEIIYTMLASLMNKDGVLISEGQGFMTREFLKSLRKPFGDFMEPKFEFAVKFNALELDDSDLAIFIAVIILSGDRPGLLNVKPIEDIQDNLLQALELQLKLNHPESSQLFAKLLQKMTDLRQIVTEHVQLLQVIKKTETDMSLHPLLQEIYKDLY
# T1 sequence (P19793 1-462 partner): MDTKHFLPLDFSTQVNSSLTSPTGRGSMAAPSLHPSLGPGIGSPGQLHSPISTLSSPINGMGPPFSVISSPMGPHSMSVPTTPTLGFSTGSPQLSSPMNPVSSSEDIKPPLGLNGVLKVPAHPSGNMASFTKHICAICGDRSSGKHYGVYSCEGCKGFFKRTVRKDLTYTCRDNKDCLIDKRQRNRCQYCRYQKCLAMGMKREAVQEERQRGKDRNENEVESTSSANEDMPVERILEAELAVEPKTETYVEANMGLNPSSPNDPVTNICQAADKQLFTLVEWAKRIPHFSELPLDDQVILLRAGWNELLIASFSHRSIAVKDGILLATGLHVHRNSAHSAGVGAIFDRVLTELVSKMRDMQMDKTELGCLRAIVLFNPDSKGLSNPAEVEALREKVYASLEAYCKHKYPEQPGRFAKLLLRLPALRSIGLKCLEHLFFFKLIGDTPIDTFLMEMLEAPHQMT
# Protocol: The physical binding of PPARγ onto the LCT gene promoter was studied by Chromatin immunoprecipitation (ChIP) experiments in Caco-2 cells (5×10^6 cells) stimulated for 24 hours with 1 mM GED in 100 mm cell culture petri dishes. Caco-2 cells were synchronized by the addition of serum-free medium for 16 hours and then stimulated for 24 hours using the protocol described previously. Cells were then rinsed with PBS and the protein-DNA complexes were fixed by adding 1% PFA for 30 minutes at room temperature. This binding was stopped by the addition of glycine (0.125M). Cells were collected by scraping in the presence of cold PBS and protease inhibitors (Sigma). The cell pellet obtained by centrifugation was taken up in 300 μl SDS buffer (1% SDS, 10 mM EDTA, 50 mM Tris-HCl pH 8, protease inhibitors) and sonicated (Diagenode, BioruptorUCD200TM-EX) for 30 seconds, followed by 30 seconds resting time. For each immunoprecipitation, 125 μL of crosslinked sonicated sample was diluted with 225 μl of IP buffer (1% triton X-100, 150 mM NaCl, 2 mM EDTA, 20 mM Tris-HCl pH 8.1 and protease inhibitors) and pre-cleared for four hours by adding 40 μL of protein A/G beads (50% slurry protein A/G Sepharose, Clinisciences) and 5 μg of salmon sperm DNA (Invitrogen). […] DNA was then purified using the PCR Clean-up kit (Macherey-Nagel) and analyzed by PCR.
smiles,measurement,setting,value
"COC(Cc1ccc(N)cc1)C(=O)O (centres unmarked) [GED, 3-(4′-aminophenyl)2-methoxypropionic acid]",luciferase activity compared to untreated cells,[1]; Caco-2 cells transfected with pGL4Luc Prom LCT construct,significantly increased
same,luciferase activity,[1]; Caco-2 cells with luciferase construct lacking the DR2 sequence (pGL4Luc),No significant change
same,lactase expression,[2],significant increase
same,lactase activity,[2]; data not shown,significant increase
same,increase of the amount of PPARγ bound to the DR2 PPRE compared to unstimulated cells,[3],2 fold
